Results reported in the NIST ThermoML archive (doi:10.1021/acs.jced.6b00178).
Numbers after ± are expanded uncertainties.

Test: xn = mol fraction of the nth substance listed
Conditions: 100 kPa, Liquid; for viscosity: Concentric cylinders viscometry; for mass density: Vibrating tube method

Work on CCCCn1cc[n+](C)c1.O=S(=O)([O-])C(F)(F)F [1-butyl-3-methylimidazolium trifluoromethanesulfonate] + CCCC[n+]1ccn(C)c1.O=S(=O)([N-]S(=O)(=O)C(F)(F)F)C(F)(F)F yielded a viscosity (283.15 K, x2 = 0) of 225.61 ± 12 mPa·s, a viscosity (283.15 K, x2 = 0.25) of 154.7 ± 8.1 mPa·s and a viscosity (283.15 K, x2 = 0.5) of 145 ± 7.5 mPa·s. The viscosity (283.15 K, x2 = 0.746) was 145.79 ± 7.6 mPa·s, the mass density (283.15 K, x2 = 0) was 1308.4 ± 0.7 kg/m3 and the mass density (283.15 K, x2 = 0.25) was 1352.7 ± 0.7 kg/m3. For the same compound, the mass density (283.15 K, x2 = 0.5) was 1389 ± 0.7 kg/m3, the mass density (283.15 K, x2 = 0.746) was 1421.8 ± 0.7 kg/m3 and the viscosity (288.15 K, x2 = 0) was 168.05 ± 8.8 mPa·s. For the same compound, the viscosity (288.15 K, x2 = 0.25) was 117.06 ± 6 mPa·s, the viscosity (288.15 K, x2 = 0.5) was 109.34 ± 5.6 mPa·s and the viscosity (288.15 K, x2 = 0.746) was 111.5 ± 5.7 mPa·s. The mass density (288.15 K, x2 = 0) was 1304.3 ± 0.7 kg/m3, the mass density (288.15 K, x2 = 0.25) was 1348.3 ± 0.7 kg/m3 and the mass density (288.15 K, x2 = 0.5) was 1384.4 ± 0.7 kg/m3. It also gave a mass density (288.15 K, x2 = 0.746) of 1417.1 ± 0.7 kg/m3, a viscosity (293.15 K, x2 = 0) of 128.51 ± 6.6 mPa·s and a viscosity (293.15 K, x2 = 0.25) of 90.69 ± 4.6 mPa·s. The viscosity (293.15 K, x2 = 0.5) was 84.53 ± 4.3 mPa·s, the viscosity (293.15 K, x2 = 0.746) was 87.3 ± 4.4 mPa·s and the mass density (293.15 K, x2 = 0) was 1300.3 ± 0.7 kg/m3. For the same compound, the mass density (293.15 K, x2 = 0.25) was 1344 ± 0.7 kg/m3, the mass density (293.15 K, x2 = 0.5) was 1379.9 ± 0.7 kg/m3 and the mass density (293.15 K, x2 = 0.746) was 1412.4 ± 0.7 kg/m3. The viscosity (298.15 K, x2 = 0) was 99.14 ± 5.1 mPa·s, the viscosity (298.15 K, x2 = 0.25) was 71.42 ± 3.6 mPa·s and the viscosity (298.15 K, x2 = 0.5) was 66.62 ± 3.4 mPa·s. It also gave a viscosity (298.15 K, x2 = 0.746) of 68.68 ± 3.5 mPa·s, a mass density (298.15 K, x2 = 0) of 1296.3 ± 0.7 kg/m3 and a mass density (298.15 K, x2 = 0.25) of 1339.8 ± 0.7 kg/m3. For the same compound, the mass density (298.15 K, x2 = 0.5) was 1375.5 ± 0.7 kg/m3, the mass density (298.15 K, x2 = 0.746) was 1407.8 ± 0.7 kg/m3 and the viscosity (303.15 K, x2 = 0) was 78.26 ± 4 mPa·s. For the same compound, the viscosity (303.15 K, x2 = 0.25) was 57.29 ± 2.9 mPa·s, the viscosity (303.15 K, x2 = 0.5) was 53.39 ± 2.7 mPa·s and the viscosity (303.15 K, x2 = 0.746) was 55.86 ± 2.8 mPa·s. It also gave a mass density (303.15 K, x2 = 0) of 1292.3 ± 0.7 kg/m3, a mass density (303.15 K, x2 = 0.25) of 1335.5 ± 0.7 kg/m3 and a mass density (303.15 K, x2 = 0.5) of 1371 ± 0.7 kg/m3. It also gave a mass density (303.15 K, x2 = 0.746) of 1403.2 ± 0.7 kg/m3, a viscosity (308.15 K, x2 = 0) of 62.76 ± 3.2 mPa·s and a viscosity (308.15 K, x2 = 0.25) of 46.66 ± 2.3 mPa·s. It also gave a viscosity (308.15 K, x2 = 0.5) of 43.56 ± 2.2 mPa·s, a viscosity (308.15 K, x2 = 0.746) of 45.8 ± 2.3 mPa·s and a mass density (308.15 K, x2 = 0) of 1288.4 ± 0.7 kg/m3. It also gave a mass density (308.15 K, x2 = 0.25) of 1331.3 ± 0.7 kg/m3, a mass density (308.15 K, x2 = 0.5) of 1366.6 ± 0.7 kg/m3 and a mass density (308.15 K, x2 = 0.746) of 1398.6 ± 0.7 kg/m3. For the same compound, the viscosity (313.15 K, x2 = 0) was 51.33 ± 2.6 mPa·s, the viscosity (313.15 K, x2 = 0.25) was 38.52 ± 1.9 mPa·s and the viscosity (313.15 K, x2 = 0.5) was 35.96 ± 1.8 mPa·s. The viscosity (313.15 K, x2 = 0.746) was 38.1 ± 1.9 mPa·s, the mass density (313.15 K, x2 = 0) was 1284.5 ± 0.7 kg/m3 and the mass density (313.15 K, x2 = 0.25) was 1327 ± 0.7 kg/m3. The mass density (313.15 K, x2 = 0.5) was 1362.2 ± 0.7 kg/m3, the mass density (313.15 K, x2 = 0.746) was 1394 ± 0.7 kg/m3 and the viscosity (318.15 K, x2 = 0) was 42.1 ± 2.1 mPa·s. For the same compound, the viscosity (318.15 K, x2 = 0.25) was 32.19 ± 1.6 mPa·s, the viscosity (318.15 K, x2 = 0.5) was 30.15 ± 1.5 mPa·s and the viscosity (318.15 K, x2 = 0.746) was 32.2 ± 1.6 mPa·s. The mass density (318.15 K, x2 = 0) was 1280.6 ± 0.7 kg/m3, the mass density (318.15 K, x2 = 0.25) was 1322.8 ± 0.7 kg/m3 and the mass density (318.15 K, x2 = 0.5) was 1357.8 ± 0.7 kg/m3. The mass density (318.15 K, x2 = 0.746) was 1389.4 ± 0.7 kg/m3, the viscosity (323.15 K, x2 = 0) was 35.13 ± 1.8 mPa·s and the viscosity (323.15 K, x2 = 0.25) was 27.21 ± 1.4 mPa·s. It also gave a viscosity (323.15 K, x2 = 0.5) of 25.43 ± 1.3 mPa·s, a viscosity (323.15 K, x2 = 0.746) of 27.44 ± 1.4 mPa·s and a mass density (323.15 K, x2 = 0) of 1276.7 ± 0.7 kg/m3. For the same compound, the mass density (323.15 K, x2 = 0.25) was 1318.7 ± 0.7 kg/m3, the mass density (323.15 K, x2 = 0.5) was 1353.5 ± 0.7 kg/m3 and the mass density (323.15 K, x2 = 0.746) was 1384.9 ± 0.7 kg/m3. For the same compound, the viscosity (328.15 K, x2 = 0) was 29.63 ± 1.5 mPa·s, the viscosity (328.15 K, x2 = 0.25) was 23.24 ± 1.2 mPa·s and the viscosity (328.15 K, x2 = 0.5) was 21.66 ± 1.1 mPa·s. It also gave a viscosity (328.15 K, x2 = 0.746) of 23.47 ± 1.2 mPa·s, a mass density (328.15 K, x2 = 0) of 1272.8 ± 0.7 kg/m3 and a mass density (328.15 K, x2 = 0.25) of 1314.5 ± 0.7 kg/m3. For the same compound, the mass density (328.15 K, x2 = 0.5) was 1349.2 ± 0.7 kg/m3, the mass density (328.15 K, x2 = 0.746) was 1380.4 ± 0.7 kg/m3 and the viscosity (333.15 K, x2 = 0) was 25.5 ± 1.3 mPa·s. The viscosity (333.15 K, x2 = 0.25) was 20.06 ± 1 mPa·s, the viscosity (333.15 K, x2 = 0.5) was 18.55 ± 0.93 mPa·s and the viscosity (333.15 K, x2 = 0.746) was 20.27 ± 1 mPa·s. It also gave a mass density (333.15 K, x2 = 0) of 1268.9 ± 0.7 kg/m3, a mass density (333.15 K, x2 = 0.25) of 1310.4 ± 0.7 kg/m3 and a mass density (333.15 K, x2 = 0.5) of 1344.9 ± 0.7 kg/m3. For the same compound, the mass density (333.15 K, x2 = 0.746) was 1376 ± 0.7 kg/m3, the viscosity (338.15 K, x2 = 0) was 21.72 ± 1.1 mPa·s and the viscosity (338.15 K, x2 = 0.25) was 17.4 ± 0.88 mPa·s. It also gave a viscosity (338.15 K, x2 = 0.5) of 16.08 ± 0.81 mPa·s, a viscosity (338.15 K, x2 = 0.746) of 17.6 ± 0.89 mPa·s and a mass density (338.15 K, x2 = 0) of 1265.1 ± 0.7 kg/m3. For the same compound, the mass density (338.15 K, x2 = 0.25) was 1306.2 ± 0.7 kg/m3, the mass density (338.15 K, x2 = 0.5) was 1340.6 ± 0.7 kg/m3 and the mass density (338.15 K, x2 = 0.746) was 1371.5 ± 0.7 kg/m3. The viscosity (343.15 K, x2 = 0) was 18.84 ± 0.95 mPa·s, the viscosity (343.15 K, x2 = 0.25) was 15.23 ± 0.77 mPa·s and the viscosity (343.15 K, x2 = 0.5) was 14.13 ± 0.71 mPa·s. For the same compound, the viscosity (343.15 K, x2 = 0.746) was 15.46 ± 0.78 mPa·s, the mass density (343.15 K, x2 = 0) was 1261.3 ± 0.6 kg/m3 and the mass density (343.15 K, x2 = 0.25) was 1302.2 ± 0.7 kg/m3. It also gave a mass density (343.15 K, x2 = 0.5) of 1336.3 ± 0.7 kg/m3, a mass density (343.15 K, x2 = 0.746) of 1367.1 ± 0.7 kg/m3 and a viscosity (348.15 K, x2 = 0) of 16.47 ± 0.83 mPa·s. The viscosity (348.15 K, x2 = 0.25) was 13.43 ± 0.68 mPa·s, the viscosity (348.15 K, x2 = 0.5) was 12.54 ± 0.63 mPa·s and the viscosity (348.15 K, x2 = 0.746) was 13.66 ± 0.69 mPa·s. For the same compound, the mass density (348.15 K, x2 = 0) was 1257.5 ± 0.6 kg/m3, the mass density (348.15 K, x2 = 0.25) was 1298.1 ± 0.7 kg/m3 and the mass density (348.15 K, x2 = 0.5) was 1332 ± 0.7 kg/m3. For the same compound, the mass density (348.15 K, x2 = 0.746) was 1362.6 ± 0.7 kg/m3, the viscosity (353.15 K, x2 = 0) was 14.83 ± 0.75 mPa·s and the viscosity (353.15 K, x2 = 0.25) was 11.94 ± 0.6 mPa·s. The viscosity (353.15 K, x2 = 0.5) was 11.18 ± 0.56 mPa·s, the viscosity (353.15 K, x2 = 0.746) was 12.23 ± 0.62 mPa·s and the mass density (353.15 K, x2 = 0) was 1253.7 ± 0.6 kg/m3. The mass density (353.15 K, x2 = 0.25) was 1294 ± 0.7 kg/m3, the mass density (353.15 K, x2 = 0.5) was 1327.8 ± 0.7 kg/m3 and the mass density (353.15 K, x2 = 0.746) was 1358.2 ± 0.7 kg/m3. It also gave a viscosity (358.15 K, x2 = 0) of 12.86 ± 0.65 mPa·s, a viscosity (358.15 K, x2 = 0.25) of 10.63 ± 0.54 mPa·s and a viscosity (358.15 K, x2 = 0.5) of 9.981 ± 0.5 mPa·s. The viscosity (358.15 K, x2 = 0.746) was 10.93 ± 0.55 mPa·s, the mass density (358.15 K, x2 = 0) was 1249.9 ± 0.6 kg/m3 and the mass density (358.15 K, x2 = 0.25) was 1290 ± 0.7 kg/m3. It also gave a mass density (358.15 K, x2 = 0.5) of 1323.5 ± 0.7 kg/m3, a mass density (358.15 K, x2 = 0.746) of 1353.8 ± 0.7 kg/m3 and a viscosity (363.15 K, x2 = 0) of 11.48 ± 0.58 mPa·s. It also gave a viscosity (363.15 K, x2 = 0.25) of 9.541 ± 0.48 mPa·s, a viscosity (363.15 K, x2 = 0.5) of 8.973 ± 0.45 mPa·s and a viscosity (363.15 K, x2 = 0.746) of 9.909 ± 0.5 mPa·s. For the same compound, the mass density (363.15 K, x2 = 0) was 1246.2 ± 0.6 kg/m3, the mass density (363.15 K, x2 = 0.25) was 1286.1 ± 0.7 kg/m3 and the mass density (363.15 K, x2 = 0.5) was 1319.3 ± 0.7 kg/m3. For the same compound, the mass density (363.15 K, x2 = 0.746) was 1349.5 ± 0.7 kg/m3.
